From patent publication US6465654B2, “Process for preparing 1-substituted, 2-substituted 1H-imidazo[4, 5-c]quinoline-4-amines” (3M Innovative Properties Company, priority 1991, dated 2002) come the findings set out here.

A value given as a limit tells only on which side of the number the result lay.

Test [1] deals with vesicular stomatitis virus (VSV). In words: microbe, parasite or virus in culture. Format: cell-based. Conditions: for VSV Yield Inhibition: log10 (control VSV yield/experimental VSV yield).
The next test deals with interferon. Description: Interferon induction in mice. Format: in vivo. Conditions: mouse serum. On the procedure: One hour later blood samples are withdrawn from the first group. The samples are pooled then centrifuged. The serum is removed from the centrifuge tube, split into two portions, then placed in freezing vials and maintained at −70° C. until analysis. This procedure is repeated at 2 hours with the second group of mice and at 4 hours with the third group of mice. Samples are assayed as described above in connection with the analysis of interferon induction in human cells. The results are expressed in the table below as α/β reference units/mL based on the value obtained for a mouse MU-1-IF standard. Results are shown in the table below wherein results designated as “<” a certain number indicate that interferon was not detectable in amounts above the lower sensitivity level of the assay.

The subject of the next test is interferon-α. Description: Interferon-α induction in human cells, PBM. Conditions: 24 hours. The format is cell-based.
Setting [2] is: Vesicular stomatitis virus, read-out: VSV Yield Inhibition.

On to `CCCCC(OC)c1nc2c(N)nc3ccccc3c2n1CC(C)C` (stereo not drawn) [Example 61, 2-(1-Methoxypentyl)-1-(2-methylproyl) -1H-imidazo[4,5-c]quinolin-4-amine], for which the “VSV Yield Inhibition” value in test [1] (dose concentration 0.1 μg/mL) is 5 log10; in test [1] (dose concentration 0.5 μg/mL) it was 7 log10; in test [1] (dose concentration 1.0 μg/mL), 5 log10. For the same compound, the “Interferon induction in mice” value is below 56 Reference Units/mL with interferon (oral 0.3 mg/kg, 1 hr); below 56 Reference Units/mL in the test on interferon (oral 0.3 mg/kg, 2 hr); below 56 Reference Units/mL in the test with interferon (oral 0.3 mg/kg, 4 hr); 120 Reference Units/mL in the test with interferon (oral 1 mg/kg, 1 hr); 220 Reference Units/mL in the test with interferon (oral 1 mg/kg, 2 hr); 97 Reference Units/mL with interferon (oral 1 mg/kg, 4 hr). Besides, the “Interferon induction in mice” value was determined as 290 Reference Units/mL in the test with interferon (oral 3 mg/kg, 1 hr); 500 Reference Units/mL with interferon (oral 3 mg/kg, 2 hr); 120 Reference Units/mL in the test on interferon (oral 3 mg/kg, 4 hr); 290 Reference Units/mL with interferon (oral 10 mg/kg, 1 hr); 1100 Reference Units/mL in the test with interferon (oral 10 mg/kg, 2 hr); 160 Reference Units/mL with interferon (oral 10 mg/kg, 4 hr). The Interferon-α induction in the test with interferon-α (dose concentration 0.10 μg/mL) was 64 α Reference Units/mL; in the test on interferon-α (dose concentration 0.50 μg/mL) it was 1300 α Reference Units/mL; in the test on interferon-α (dose concentration 1.0 μg/mL), 330 α Reference Units/mL; in the test on interferon-α (dose concentration 5.0 μg/mL), 330 α Reference Units/mL.

Take `Nc1nc2ccccc2c2c1nc(CO)n2Cc1ccccc1` [Example 27, 4-Amino-1-phenylmethyl-1H-imidazo[4,5-c]-quinoline-2-methanol]: the log reduction at 0.1 µg/mL in test [1] (setting [2]) was 4. In addition, in test [1] (setting [2]), the log reduction at 0.5 µg/mL amounted to 3. Further, the log reduction at 1 µg/mL in test [1] (setting [2]) came out at 4. Moreover, the “Interferon induction in mice” value in the test on interferon (oral 0.3 mg/kg, 1 hr) is recorded as below 45 Reference Units/mL; with interferon (oral 0.3 mg/kg, 2 hr), below 45 Reference Units/mL; with interferon (oral 0.3 mg/kg, 4 hr) it was below 45 Reference Units/mL; in the test with interferon (oral 1 mg/kg, 1 hr) it was below 45 Reference Units/mL; in the test on interferon (oral 1 mg/kg, 2 hr) it was below 45 Reference Units/mL; in the test with interferon (oral 1 mg/kg, 4 hr), below 45 Reference Units/mL. For the same compound, the “Interferon induction in mice” value in the test on interferon (oral 3 mg/kg, 1 hr) is below 59 Reference Units/mL; in the test with interferon (oral 3 mg/kg, 2 hr), 230 Reference Units/mL; in the test on interferon (oral 3 mg/kg, 4 hr), below 45 Reference Units/mL; in the test on interferon (oral 10 mg/kg, 1 hr), 130 Reference Units/mL; in the test on interferon (oral 10 mg/kg, 2 hr), 690 Reference Units/mL; in the test on interferon (oral 10 mg/kg, 4 hr), below 45 Reference Units/mL. Further, the Interferon-α induction in the test with interferon-α (dose concentration 0.01 μg/mL) was <4 α Reference Units/mL; in the test on interferon-α (dose concentration 0.05 μg/mL), 24 α Reference Units/mL; in the test with interferon-α (dose concentration 0.10 μg/mL), 3300 α Reference Units/mL; in the test on interferon-α (dose concentration 0.50 μg/mL) it was 550 α Reference Units/mL; in the test with interferon-α (dose concentration 1.0 μg/mL), 370 α Reference Units/mL; in the test with interferon-α (dose concentration 5.0 μg/mL) it was 490 α Reference Units/mL.

As for `CCOCc1nc2c(N)nc3ccccc3c2n1Cc1ccccc1` [Example 93, 2-Ethoxymethyl-1-phenylmethyl-1H-imidazo[4,5-c]quinolin-4-amine], in test [1] (setting [2]), the log reduction at 0.1 µg/mL came to 0. Also, the log reduction at 0.5 µg/mL in test [1] (setting [2]) is 5. Further, in test [1] (setting [2]), the log reduction at 1 µg/mL was determined as 5. Besides, the “Interferon induction in mice” value in the test with interferon (oral 0.3 mg/kg, 1 hr) is given as 400 Reference Units/mL; in the test with interferon (oral 0.3 mg/kg, 2 hr) it was 360 Reference Units/mL; with interferon (oral 0.3 mg/kg, 4 hr) it was “≦150 Reference Units/mL”; in the test on interferon (oral 1 mg/kg, 1 hr), 660 Reference Units/mL; in the test with interferon (oral 1 mg/kg, 2 hr), 1500 Reference Units/mL; in the test with interferon (oral 1 mg/kg, 4 hr) it was 340 Reference Units/mL. The “Interferon induction in mice” value is 1300 Reference Units/mL in the test with interferon (oral 3 mg/kg, 1 hr); 1300 Reference Units/mL in the test on interferon (oral 3 mg/kg, 2 hr); “˜260 Reference Units/mL” in the test on interferon (oral 3 mg/kg, 4 hr); 2100 Reference Units/mL in the test with interferon (oral 10 mg/kg, 1 hr); 2900 Reference Units/mL in the test with interferon (oral 10 mg/kg, 2 hr); 630 Reference Units/mL in the test on interferon (oral 10 mg/kg, 4 hr). Also, the Interferon-α induction with interferon-α (dose concentration 0.10 μg/mL) is listed as 850 α Reference Units/mL; in the test with interferon-α (dose concentration 0.50 μg/mL) it was 280 α Reference Units/mL; in the test with interferon-α (dose concentration 1.0 μg/mL) it was 300 α Reference Units/mL; in the test on interferon-α (dose concentration 5.0 μg/mL) it was 300 α Reference Units/mL.

Regarding `CC(C)(O)Cn1c(CO)nc2c(N)nc3ccccc3c21` [Example 90, 4-Amino-α,α-dimethyl-2-hydroxymethyl-1H-imidazo[4,5-c]quinoline-1-ethanol], the log reduction at 0.1 µg/mL in test [1] (setting [2]) turned out to be 5. The log reduction at 0.5 µg/mL in test [1] (setting [2]) came to 4. Also, in test [1] (setting [2]), the log reduction at 1 µg/mL is 5. Moreover, the “Interferon induction in mice” value in the test on interferon (oral 0.3 mg/kg, 1 hr) is reported as below 74 Reference Units/mL; in the test with interferon (oral 0.3 mg/kg, 2 hr) it was below 74 Reference Units/mL; with interferon (oral 0.3 mg/kg, 4 hr), below 74 Reference Units/mL; in the test with interferon (oral 1 mg/kg, 1 hr), below 74 Reference Units/mL; with interferon (oral 1 mg/kg, 2 hr), below 74 Reference Units/mL; in the test with interferon (oral 1 mg/kg, 4 hr), below 74 Reference Units/mL. Also, the “Interferon induction in mice” value in the test on interferon (oral 3 mg/kg, 1 hr) is listed as “≦130 Reference Units/mL”; in the test on interferon (oral 3 mg/kg, 2 hr), 570 Reference Units/mL; in the test with interferon (oral 3 mg/kg, 4 hr), “≦74 Reference Units/mL”; with interferon (oral 10 mg/kg, 1 hr) it was 750 Reference Units/mL; in the test on interferon (oral 10 mg/kg, 2 hr) it was 3500 Reference Units/mL; in the test with interferon (oral 10 mg/kg, 4 hr), “≦140 Reference Units/mL”. The Interferon-α induction in the test with interferon-α (dose concentration 0.01 μg/mL) was <6.4 α Reference Units/mL; with interferon-α (dose concentration 0.05 μg/mL), 640 α Reference Units/mL; in the test on interferon-α (dose concentration 0.10 μg/mL), 3000 α Reference Units/mL; in the test with interferon-α (dose concentration 0.50 μg/mL), 640 α Reference Units/mL; with interferon-α (dose concentration 1.0 μg/mL) it was 420 α Reference Units/mL; in the test on interferon-α (dose concentration 5.0 μg/mL), 580 α Reference Units/mL.

In the case of `CCOCc1nc2c(N)nc3ccccc3c2n1CC(C)C` [Example 40, 2-Ethoxymethyl-1-(2-methylpropyl)-1H-imidazo[4,5-c]quinolin-4-amine], in test [1] (setting [2]), the log reduction at 1 µg/mL came to 7. Further, in test [1] (setting [2]), the log reduction at 5 µg/mL came out at 7. The log reduction at 10 µg/mL in test [1] (setting [2]) was found to be 6. The “Interferon induction in mice” value with interferon (oral 0.3 mg/kg, 1 hr) is listed as 450 Reference Units/mL; in the test with interferon (oral 0.3 mg/kg, 2 hr) it was 200 Reference Units/mL; in the test on interferon (oral 0.3 mg/kg, 4 hr), below 29 Reference Units/mL; with interferon (oral 1 mg/kg, 1 hr) it was 450 Reference Units/mL; in the test on interferon (oral 1 mg/kg, 2 hr) it was 450 Reference Units/mL; with interferon (oral 1 mg/kg, 4 hr) it was 110 Reference Units/mL. Besides, the “Interferon induction in mice” value with interferon (oral 3 mg/kg, 1 hr) is recorded as 990 Reference Units/mL; in the test on interferon (oral 3 mg/kg, 2 hr), 1100 Reference Units/mL; with interferon (oral 3 mg/kg, 4 hr), 210 Reference Units/mL; in the test on interferon (oral 10 mg/kg, 1 hr), 1600 Reference Units/mL; in the test on interferon (oral 10 mg/kg, 2 hr), 1600 Reference Units/mL; with interferon (oral 10 mg/kg, 4 hr) it was 170 Reference Units/mL. For the same compound, the Interferon-α induction in the test with interferon-α (dose concentration 0.10 μg/mL) is 680 α Reference Units/mL; in the test with interferon-α (dose concentration 0.50 μg/mL) it was 230 α Reference Units/mL; with interferon-α (dose concentration 1.0 μg/mL) it was 210 α Reference Units/mL; in the test on interferon-α (dose concentration 5.0 μg/mL), 210 α Reference Units/mL.

Take `COC(C)Cc1nc2c(N)nc3ccccc3c2n1CC(C)C` (stereo not drawn) [Example 77, 2-(2-Methoxypropyl)-1-(2-methylpropyl)-1H-imidazo[4,5-c]quinolin-4-amine]: the log reduction at 0.1 µg/mL in test [1] (setting [2]) came out at 3. Further, in test [1] (setting [2]), the log reduction at 0.5 µg/mL was 5. Besides, the log reduction at 1 µg/mL in test [1] (setting [2]) came out at 5. Also, the Interferon-α induction is <6.3 α Reference Units/mL in the test on interferon-α (dose concentration 0.01 μg/mL); <6.3 α Reference Units/mL in the test on interferon-α (dose concentration 0.05 μg/mL); 2600 α Reference Units/mL in the test with interferon-α (dose concentration 0.10 μg/mL); 390 α Reference Units/mL with interferon-α (dose concentration 0.50 μg/mL); 250 α Reference Units/mL with interferon-α (dose concentration 1.0 μg/mL); 280 α Reference Units/mL in the test with interferon-α (dose concentration 5.0 μg/mL).
